Molecular target: R132H mutant IDH1 enzyme (Homo sapiens (Human), UniProt O75874, R132H)
Assay: R132H IDH1 Enzymatic Assay
Format: biochemical
Details: R132H mutant IDH1 enzyme 1.5 nM final; luminescence (Kinase-GLO) readout
Method: R132H IDH1 Enzymatic Assay
Luminescence is measured using a PerkinElmer Envision plate reader.

Chain of R132H mutant IDH1 enzyme (O75874 whole entry R132H): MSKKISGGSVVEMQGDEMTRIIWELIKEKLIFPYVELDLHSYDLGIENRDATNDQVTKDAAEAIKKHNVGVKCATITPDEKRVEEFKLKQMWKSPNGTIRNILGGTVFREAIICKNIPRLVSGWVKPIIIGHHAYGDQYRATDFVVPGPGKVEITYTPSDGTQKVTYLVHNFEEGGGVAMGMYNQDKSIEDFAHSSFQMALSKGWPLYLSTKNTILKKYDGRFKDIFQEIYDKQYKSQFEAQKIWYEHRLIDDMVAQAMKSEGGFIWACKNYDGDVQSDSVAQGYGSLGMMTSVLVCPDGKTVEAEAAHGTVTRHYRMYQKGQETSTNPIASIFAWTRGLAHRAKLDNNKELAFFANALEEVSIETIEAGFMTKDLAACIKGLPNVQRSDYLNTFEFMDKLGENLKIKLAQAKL

Structure (SMILES) | IC50 [nM]
COC1CC2CCC(C1)C2C(=O)N1Cc2cccnc2Nc2ccc(N3CCOCC3)cc21 (centres unmarked) [Example 1, 6-{[(3r,8r)-3-Methoxybicyclo[3.2.1]oct-8-yl]carbonyl}-8-morpholin-4-yl-6,11-dihydro-5H-pyrido[2,3-b][1,5]benzodiazepine] | 1050
COC1CC2CCC(C1)C2C(=O)N1Cc2cccnc2Nc2ccc(N3CCOCC3)cc21 (centres unmarked) [Example 2, 6-{[(3s,8s)-3-methoxybicyclo[3.2.1]oct-8-yl]carbonyl}-8-morpholin-4-yl-6,11-dihydro-5H-pyrido[2,3-b][1,5]benzodiazepine] | 226
CC(C)[C@@H]1COC(=O)N1c1ccc2c(c1)N(C(=O)[C@]13C[C@H]4C[C@H](C[C@H](C4)C1)C3)Cc1cccnc1N2 [Example 119, (4R)-4-(1-Methylethyl)-3-{6-[(3S,5S,7S)-tricyclo[3.3.1.1˜3,7˜]dec-1-ylcarbonyl]-6,11-dihydro-5H-pyrido[2,3-b][1,5]benzodiazepin-8-yl}-1,3-oxazolidin-2-one] | 22
O=C(C1C[C@H]2COC[C@@H](C1)N2CC(F)(F)F)N1Cc2cccnc2Nc2ccc(N3C[C@H]4CC[C@@H]3CO4)cc21 (stereo partly drawn) [Example 129, (8-((1R,4R)-2-Oxa-5-azabicyclo[2.2.2]octan-5-yl)-5,11-dihydro-6H-benzo[b]pyrido[2,3-e][1,4]diazepin-6-yl)((1R,5S)-9-(2,2,2-trifluoroethyl)-3-oxa-9-azabicyclo[3.3.1]nonan-7-yl)methanone] | 6
O=C(C1C[C@H]2COC[C@@H](C1)N2CC(F)(F)F)N1Cc2cccnc2Nc2ccc(N3C[C@@H]4CC[C@H]3CO4)cc21 (stereo partly drawn) [Example 130, (8-((1 S,4S)-2-oxa-5-azabicyclo[2.2.2]octan-5-yl)-5,11-dihydro-6H-benzo[b]pyrido[2,3-e][1,4]diazepin-6-yl)((1R,5S)-9-(2,2,2-trifluoroethyl)-3-oxa-9-azabicyclo[3.3.1]nonan-7-yl)methanone] | 5
